System: human normal peripheral blood monocyte
Experiment: Influence of the artificially synthesized peptide on normal cell genes: coculture 7 hr, DNA chip system (Clontech), about 55000 human genes (Table 4)
Type: cell-based
Conditions: Suppressed Gene, Immune System Gene
Experimental: (a) The peptide obtained in Example 3 was added to a human normal peripheral blood monocyte culture system (10 to 100 μg peptide/1×10^6 to 1×10^7 monocytes), and they were cocultured for 7 hr. Then, mRNA was extracted from the monocytes and was applied to analysis for up-regulation and down-regulation in respect to about 55000 human genes by using DNA chip system (Clontech).

[1] = Gene No. 12812, ovarian carcinoma immunoreactive antigen (OCIA)
[2] = Gene No. 14949, programmed cell death 10 (PDCD10), transcript variant 1
[3] = Gene No. 15907, intercellular adhesion molecule 2 (ICAM2)
[4] = Gene No. 15994, beta-2-microglobulin (B2M)
[5] = Gene No. 16478, tumor necrosis factor (ligand) superfamily, member 12 (TNFSF12), transcript variant 1, mRNA
[6] = Gene No. 16756, major histocompatibility complex, class I, E (HLA-E)
[7] = Gene No. 17177, tumor necrosis factor superfamily, member 5-induced protein 1 (TNFSF5IP1)
[8] = Gene No. 18139, major histocompatibility complex, class II, DQ alpha 1 (HLA-DQA1)
[9] = Gene No. 18884, (clone 38-1) MHC class I mRNA fragment.
[10] = Gene No. 20551, IL2-inducible T-cell kinase (ITK)
[11] = Gene No. 20881, natural killer cell transcript 4 (NK4)
[12] = Gene No. 21487, programmed cell death 2 (PDCD2), transcript variant 1
[13] = Gene No. 22326, immune associated nucleotide 2 (hIAN2)
[14] = Gene No. 22789, CASP8 and FADD-like apoptosis regulator (CFLAR)
[15] = Gene No. 22868, lymphocyte cytosolic protein 2 (SH2 domain containing leukocyte protein of 76 kDa) (LCP2)
[16] = Gene No. 22890, NK inhibitory receptor precursor (NKIR)
[17] = Gene No. 23827, major histocompatibility complex, class II, DM alpha (HLA-DMA)
[18] = Gene No. 24440, THYMUS cDNA clone CS0CAP007YL06 5-PRIME
[19] = Gene No. 24969, CD69 antigen (p60, early T-cell activation antigen) (CD69)
[20] = Gene No. 34736, adhesion molecule AMICA (AMICA)
[21] = Gene No. 37068, immediate early response 2 (IER2)
[22] = Gene No. 37445, mal, T-cell differentiation protein (MAL), transcript variant d
[23] = Gene No. 37834, proteasome (prosome, macropain) 26S subunit, non-ATPase, 1 (PSMD1)
[24] = Gene No. 38103, tumor necrosis factor receptor superfamily, member 7 (TNFRSF7)
[25] = Gene No. 38879, interferon stimulated gene 20 kDa (ISG20)
[26] = Gene No. 39926, thymosin-like 6 (TMSL6)
[27] = Gene No. 39991, lymphotoxin beta (TNF superfamily, member 3) (LTB), transcript variant 2
[28] = Gene No. 40727, linker for activation of T cells (LAT)
[29] = Gene No. 41726, apoptosis-associated speck-like protein containing a CARD (ASC), transcript variant 1
[30] = Gene No. 41803, programmed cell death 2 (PDCD2), transcript variant 2
[31] = Gene No. 41817, major histocompatibility complex, class I, F (HLA-F)
[32] = Gene No. 42474, programmed cell death 6 (PDCD6)
[33] = Gene No. 42573, T-cell activation protein (PGR1)
[34] = Gene No. 42614, killer cell lectin-like receptor subfamily K, member 1 (KLRK1)
[35] = Gene No. 42661, proteasome (prosome, macropain) subunit, beta type, 9 (large multifunctional protease 2) (PSMB9), transcript variant 1
[36] = Gene No. 42680, proteasome (prosome, macropain) 26S subunit, ATPase, 4 (PSMC4), transcript variant 1
[37] = Gene No. 42813, granzyme A (granzyme 1, cytotoxic T-lymphocyte-associated serine esterase 3) (GZMA)
[38] = Gene No. 43032, interferon, gamma-inducible protein 16 (IFI16)
[39] = Gene No. 45767, HLA-B associated transcript 1 (BAT1), transcript variant 1
[40] = Gene No. 46186, cell death-regulatory protein GRIM19 (GRIM19)
[41] = Gene No. 47689, killer cell lectin-like receptor subfamily B, member 1 (KLRB1)
[42] = Gene No. 47973, CD8 antigen, beta polypeptide 1 (p37) (CD8B1), transcript variant 5
[43] = Gene No. 49170, interferon gamma receptor 2 (interferon gamma transducer 1) (IFNGR2)
[44] = Gene No. 49586, interleukin-1 receptor-associated kinase 4 (IRAK4)
[45] = Gene No. 49622, intercellular adhesion molecule 3 (ICAM3)
[46] = Gene No. 51004, tumor necrosis factor (ligand) superfamily, member 10 (TNFSF10)
[47] = Gene No. 52071, interferon (alpha, beta and omega) receptor 1 (IFNAR1)
[48] = Gene No. 52342, apoptosis-related protein PNAS-1 (FLJ39616)
[49] = Gene No. 52539, major histocompatibility complex, class II, DR alpha (HLA-DRA)
[50] = Gene No. 53172, transforming growth factor, beta 1 (Camurati-Engelmann disease) (TGFB1)

the Peptide (QPQFGRRMESK; Human squamous cell carcinoma)
Suppression Ratio (Gene No. 11651, implantation-associated protein (DKFZp564K142)): 89.16
Expression Amount after Treatment with the Peptide [1]: 24.53
Suppression Ratio [1]: 47.97
Expression Amount after Treatment with the Peptide [2]: 25.27
Suppression Ratio [2]: 40.37
Expression Amount after Treatment with the Peptide [3]: 6.364
Suppression Ratio [3]: 143.4
Expression Amount after Treatment with the Peptide [4]: 239.5
Suppression Ratio [4]: 47.59
Expression Amount after Treatment with the Peptide [5]: 6.018
Suppression Ratio [5]: 110.2
Expression Amount after Treatment with the Peptide [6]: 2.806
Suppression Ratio [6]: 140.8
Expression Amount after Treatment with the Peptide [7]: 26.16
Suppression Ratio [7]: 39.51
Expression Amount after Treatment with the Peptide [8]: 33.12
Suppression Ratio [8]: 80.32
Expression Amount after Treatment with the Peptide [9]: 3.387
Suppression Ratio [9]: 100.2
Expression Amount after Treatment with the Peptide [10]: 22.93
Suppression Ratio [10]: 122.6
Expression Amount after Treatment with the Peptide [11]: 38.17
Suppression Ratio [11]: 172.9
Expression Amount after Treatment with the Peptide [12]: 9.909
Suppression Ratio [12]: 39.12
Expression Amount after Treatment with the Peptide [13]: 9.743
Suppression Ratio [13]: 113.2
Expression Amount after Treatment with the Peptide [14]: 9.725
Suppression Ratio [14]: 75.25
Expression Amount after Treatment with the Peptide [15]: 6.525
Suppression Ratio [15]: 82.73
Expression Amount after Treatment with the Peptide [16]: 9.902
Suppression Ratio [16]: 112.4
Expression Amount after Treatment with the Peptide [17]: 29.78
Suppression Ratio [17]: 80.72
Expression Amount after Treatment with the Peptide [18]: 0.2348
Suppression Ratio [18]: 59.63
Expression Amount after Treatment with the Peptide [19]: 25.71
Suppression Ratio [19]: 95.14
Expression Amount after Treatment with the Peptide [20]: 29.08
Suppression Ratio [20]: 136.7
Expression Amount after Treatment with the Peptide [21]: 57.38
Suppression Ratio [21]: 121.3
Expression Amount after Treatment with the Peptide [22]: 14.875
Suppression Ratio [22]: 112.4
Expression Amount after Treatment with the Peptide [23]: 14.11
Suppression Ratio [23]: 38.69
Expression Amount after Treatment with the Peptide [24]: 5.778
Suppression Ratio [24]: 121.8
Expression Amount after Treatment with the Peptide [25]: 31.94
Suppression Ratio [25]: 91.84
Expression Amount after Treatment with the Peptide [26]: 317.7
Suppression Ratio [26]: 54.8
Expression Amount after Treatment with the Peptide [27]: 17.77
Suppression Ratio [27]: 135.9
Expression Amount after Treatment with the Peptide [28]: 28.17
Suppression Ratio [28]: 42.75
Expression Amount after Treatment with the Peptide [29]: 33.51
Suppression Ratio [29]: 134.7
Expression Amount after Treatment with the Peptide [30]: 0.82
Suppression Ratio [30]: 108.8
Expression Amount after Treatment with the Peptide [31]: 98.43
Suppression Ratio [31]: 107.9
Expression Amount after Treatment with the Peptide [32]: 17.04
Suppression Ratio [32]: 68.35
Expression Amount after Treatment with the Peptide [33]: 15.75
Suppression Ratio [33]: 60.53
Expression Amount after Treatment with the Peptide [34]: 4.848
Suppression Ratio [34]: 129.2
Expression Amount after Treatment with the Peptide [35]: 39.14
Suppression Ratio [35]: 38.48
Expression Amount after Treatment with the Peptide [36]: 42.03
Suppression Ratio [36]: 38.46
Expression Amount after Treatment with the Peptide [37]: 38.51
Suppression Ratio [37]: 115.5
Expression Amount after Treatment with the Peptide [38]: 4.446
Suppression Ratio [38]: 116.8
Expression Amount after Treatment with the Peptide [39]: 18.125
Suppression Ratio [39]: 130.2
Expression Amount after Treatment with the Peptide [40]: 25.55
Suppression Ratio [40]: 55.07
Expression Amount after Treatment with the Peptide [41]: 72.08
Suppression Ratio [41]: 52.77
Expression Amount after Treatment with the Peptide [42]: 9.639
Suppression Ratio [42]: 153.6
Expression Amount after Treatment with the Peptide [43]: 10.09
Suppression Ratio [43]: 70.7
Expression Amount after Treatment with the Peptide [44]: 2.716
Suppression Ratio [44]: 91.49
Expression Amount after Treatment with the Peptide [45]: 39.68
Suppression Ratio [45]: 86.23
Expression Amount after Treatment with the Peptide [46]: 8.725
Suppression Ratio [46]: 39.65
Expression Amount after Treatment with the Peptide [47]: 9.429
Suppression Ratio [47]: 44.09
Expression Amount after Treatment with the Peptide [48]: 18.72
Suppression Ratio [48]: 64.11
Expression Amount after Treatment with the Peptide [49]: 158.7
Suppression Ratio [49]: 109.3
Expression Amount after Treatment with the Peptide [50]: 6.56
Suppression Ratio [50]: 88.02

Reference: patent US8173788B2, “Peptide having ability to activate cancer-related gene” (priority 2005, dated 2012)
